± gives the expanded uncertainty stated by the source.
Details: Liquid

## FCC(F)(F)F [1,1,1,2-tetrafluoroethane]
303.45 K
  vapor or sublimation pressure: 775.7 ± 1.1 kPa
308.44 K
  vapor or sublimation pressure: 892.2 ± 1.2 kPa
313.3 K
  vapor or sublimation pressure: 1018.8 ± 1.3 kPa
318.39 K
  vapor or sublimation pressure: 1165.4 ± 1.4 kPa
323.3 K
  vapor or sublimation pressure: 1319 ± 1.5 kPa
328.26 K
  vapor or sublimation pressure: 1492.4 ± 1.7 kPa
333.3 K
  vapor or sublimation pressure: 1683.7 ± 1.9 kPa
338.24 K
  vapor or sublimation pressure: 1889.6 ± 2 kPa
343.23 K
  vapor or sublimation pressure: 2115.3 ± 2.2 kPa
